Results published in patent publication US7820825B2, “N-substituted-azacyclylamines as histamine-3 antagonists” (Wyeth LLC, priority 2006, dated 2010).

SMILES | melting point
Cn1cc(Cc2ccc(C(=O)N3CC[C@H](N4CCCC4)C3)cc2)c2ccccc21 [Example 229, (3′S)-1-{4-[(1-methyl-1H-indol-3-yl)methyl]benzoyl}-1,3′-bipyrrolidine] | 73 to 78 °C
CN(C)[C@H]1CCN(C(=O)c2ccc(Cc3cn(C)c4ccccc34)cc2)C1 [Example 230, (3S)-N,N-dimethyl-1-{4-[(1-methyl-1H-indol-3-yl)methyl]benzoyl}pyrrolidin-3-amine] | 101 to 105 °C
